Legend:
Assay type in all cases: cell-based
mouse β-cells [1] = experiment: Capacitance measurement of exocytosis, standard whole-cell patch, inositol phosphate in the pipette-filling solution
Experimental: Cells expressing EGFP were selected for capacitance measurements. Exocytosis was monitored as changes in cell capacitance using either the perforated patch or standard whole-cell configuration of the patch-clamp technique and an EPC9 patch-clamp amplifier (Heka Elektronik, Lambrecht/Pfalz, Germany). The pipette solution for the perforated patch configuration consisted of (in mM) 76 Cs2SO4, 10 NaCl, 10 KCl, 1 MgCl2, 5 HEPES (pH 7.35 with CsOH) and 0.24 mg/ml amphotericin B. Perforation required a few minutes, and the voltage clamp was considered satisfactory when the Gseries (series conductance) was stable and >35 nS. The pipette solution used for standard whole-cell recordings contained (in mM) 125 Cs-glutamate, 10 CsCl, 10 NaCl, 1 MgCl2, 5 HEPES, 0.05 EGTA, 0.01 GTP and 3 MgATP (pH 7.15 using CsOH). InsP7 isomers were dissolved in the pipette-filling solution to the final concentrations indicated in the text and kept on ice until use. The extracellular medium was composed of (in mM) 118 NaCl, 20 tetraethylammonium-Cl, 5.6 KCl, 1.2 MgCl2, 2.6 CaCl2, 5 HEPES (pH 7.40 using NaOH) and 3 glucose. The stimulation protocol consisted of trains of four 500-ms depolarizations applied at 1 Hz and went from −70 mV to zero mV. The capacitance measurements were performed at 33° C. and the recording chamber was perfused at a rate of 1.5 ml/min.
An important concern is that IP6K's can also use InsP5 as a substrate, generating a different subset of inositol pyrophosphates (4). Therefore, it was necessary to verify that InsP7 is able to directly promote exocytosis. The mammalian InsP7 is the 5-isomer and this was used in detailed experiments (FIG. 3A-D). We also assessed other theoretical isomers of InsP7 (FIG. 3E). To measure the effects of 5-InsP7 on exocytosis, we applied trains of depolarizations in standard whole-cell experiments where the β-cell was dialyzed with a solution containing 3 μM InsP7. Following establishment of the whole-cell configuration, the cell was allowed two minutes equilibration period. A train consisting of four 500 ms depolarizations from −70 mV to 0 mV was then applied to evoke exocytosis. In a series of six experiments, the total increase in cell capacitance amounted to 231+/−12 fF (P<0.01) in the presence of 3 μM InsP7 in the pipette-filling solution and 77+/−11 fF under control conditions, respectively (FIG. 3A). […] The stimulatory action of 5-InsP7 on exocytosis was concentration dependent (FIG. 3D). […] At higher concentrations, 5-InsP7 stimulated exocytosis by 90-410%. Approximating the average data points to the Hill equation yielded a half-maximal stimulatory effect of 1.02 μM and a co-operativity factor of 1.5. […] Thus, 5-InsP7 dose-dependently enhances exocytosis within the physiological range of InsP7 concentrations (1-10 μM). […] This is because the effect of InsP6 on exocytosis can only be discerned under conditions in which endocytosis is inhibited (15). This is not the case for InsP7. […] Our data illustrate that InsP7 and InsP6 have distinct effects on exocytosis.

mouse β-cells [2] = experiment: as above; design: dose or concentration left out as unconfirmed; conditions: at InsP7; single depolarization from −70 mV to zero
[3] = tested on: whole-cell Ca2+ current in mouse β-cells; experiment: Whole-cell Ca2+ current (integrated Ca2+ current) during depolarization train; conditions: 3 μM in the pipette-filling solution
Experimental: FIG. 3. InsP7 dose-dependently promotes Ca2+-dependent exocytosis. Individual mouse β-cells were subjected to a train of four 500-ms depolarizations using the standard whole-cell patch configuration. (A) Exocytosis was observed under control conditions and in the presence of 3 μM 5-InsP7 in the pipette-filling solution. 5-InsP7 was allowed to diffuse into the cell for 2 min before initiation of the experiment. (B) Histogram summarizing the average increases in cell capacitance plotted against the individual depolarizations as well as the total increases in cell capacitance at the end of the train in the absence or presence of 3 μM 5-InsP7 in the pipette-filling solution. (C) Histogram showing integrated Ca2+ current (QCa) plotted against the individual depolarizations in the absence or presence of 3 μM InsP7 in the pipette-filling solution. (D) Concentration dependence of stimulatory action of 5-InsP7 on exocytosis evoked by a single membrane depolarization from −70 mV to zero. The curve represents a least-squares fit of the mean data points to the Hill equation. […]
Cells expressing EGFP were selected for capacitance measurements. Exocytosis was monitored as changes in cell capacitance using either the perforated patch or standard whole-cell configuration of the patch-clamp technique and an EPC9 patch-clamp amplifier (Heka Elektronik, Lambrecht/Pfalz, Germany). […]

[4] = in the presence of 5-InsP7 (3 μM)

SMILES | net effect on exocytosis/endocytosis (mouse β-cells [1]; same conditions as for InsP7, 10 μM InsP6 in the pipette-filling solution) | selective promotion of secretion from the RRP (mouse β-cells [1]; when endocytosis is inhibited (data not shown)) | stimulation of exocytosis at low concentration (mouse β-cells [2]) | concentration giving maximal stimulation of exocytosis (mouse β-cells [1]) [µM] | total increase in cell capacitance (mouse β-cells [1]; 3 μM InsP7 in the pipette-filling solution, train of four 500 ms depolarizations, six experiments) | EC50 (mouse β-cells [1]; Hill equation fit of average data points, read-out: half-maximal stimulatory effect on exocytosis) [nM] | maximal stimulation of exocytosis (mouse β-cells [1]; at InsP7 ≧10 μM) [%] | stimulation of exocytosis (mouse β-cells [1]; at higher concentrations (above 0.1), single depolarization) | capacitance increase evoked by the first depolarization (mouse β-cells [1]; [4]) | exocytosis in response to the subsequent 3 depolarizations (mouse β-cells [1]; [4]) | exocytotic response in cells with IP6K1 silenced (mouse β-cells [1]; whole cell mode, IP6K1 siRNA-treated primary β-cells) | change in the whole-cell Ca2+ current [3]
O=P(O)(O)O[C@H]1[C@H](OP(=O)(O)O)[C@@H](OP(=O)(O)O)[C@H](OP(=O)(O)O)[C@@H](OP(=O)(O)O)[C@H]1OP(=O)(O)O [InsP6] | promote endocytosis not exocytosis | does not selectively promote secretion from the RRP | – | – | – | – | – | – | – | – | – | –
O=P(O)(O)OC1[C@@H](OP(=O)(O)O)[C@H](OP(=O)(O)O)C(OP(=O)(O)OP(=O)(O)O)[C@H](OP(=O)(O)O)[C@H]1OP(=O)(O)O (stereo partly drawn) [5-InsP7, 5-Diphosphoinositol pentakisphosphate] | – | – | No stimulation | ≥ 10 | 231+/−12 fF | 1020 | > 380 | 90-410% | strongly stimulated | only little effect | restore normal exocytotic response | not associated with a change
